Laboratory results taken from patent publication US10864229B2, “Use of nitrite salts in chronic ischemia” (priority 2007, dated 2020).
Read-outs that look alike come from different tables or passages of the source.

How the values were obtained:
[1] = tested on: mouse hind-limb ischemia model; test: Laser Doppler hind-limb blood flow, chronic treatment in hind-limb ischemia model; type: in vivo, mouse (C57BL/6J)
Description: (§1) Animals and Reagents. Unless otherwise stated, male wild type (C57BL/6J) mice weighing 20-25 gm and age 2-3 months were used. The mice were bred and housed at the Association for Assessment and Accreditation of Laboratory Animal Care, International-accredited LSUHSC-Shreveport animal resource facility and maintained according to the National Research Council's Guide for Care and Use of Laboratory Animals. All experimental protocols were approved by the LSU Institutional Animal Care and Use Committee. Sodium nitrite, sodium nitrate, phosphate buffered saline (PBS), and all other chemicals were purchased from Sigma Chemical (St. Louis, Mo.). Hind-Limb Ischemia Model. Hind limb ischemia was induced by ligating the left common femoral artery proximal to origin of profunda femoris artery according to Senthilkumar, A., Smith, R. D., Khitha, J., Arora, N., Veerareddy, S., Langston, W., Chidlow, J. H., Jr., Barlow, S. C., Teng, X., Patel, R. P., et al. 2007. Arterioscler Thromb Vase Biol 27:1947-1954. Mice were anesthetized with intraperitoneal injection of ketamine (100 mg/kg) and xylazine (8 mg/kg); surgery was performed […] aseptic conditions. The common femoral vein and femoral nerve were dissected away from the artery. Two ligatures were placed in the common femoral artery proximal to the profunda femoris artery and then transected between the two ligations. The incision was then closed and the ligation was immediately verified by laser Doppler measurement of tissue blood flow.
(§2) Laser Doppler measurements of tissue blood flow. The Vasamedics Laserflo BPM2 deep tissue penetrating laser doppler device was used to measure hind limb blood flow. The tip of laser probe was placed with stable positioning using a probe stand over the medial calf muscle of mice. Readings were recorded in ml of blood flow per 100 g tissue per minute from non-ischemic and ischemic limbs. Daily blood flow measurements were taken before the first nitrite or nitrate injection of a 24 hour period in order to obtain representative steady state changes in perfusion. Percent change in tissue blood flow was determined by dividing ischemic limb blood flow by non-ischemic limb blood flow and multiplied by 100. In a separate series of experiments, blood flow was also measured within 30 seconds after nitrite or nitrate administration to assess acute changes in blood flow.
We examined the effect of a range of sodium nitrite doses on ischemic tissue blood flow in the mouse hind-limb ischemia model described in Example 1. Sodium nitrite was administered via intraperitoneal injection twice a day in a dose range of 8.25-3,300 μg/kg; 15 mice were used per treatment group. Blood flow was measured according the laser Doppler method of Example 1. Changes in ischemic tissue perfusion were determined by measuring ischemic limb blood flow which was divided by the respective contra-lateral non-ischemic limb blood flow to calculate a percent change for each animal.

[2] = tested on: mouse hind-limb ischemia model; test: Vascular density (CD31/DAPI) of gastrocnemius muscle tissue; type: in vivo, mouse (C57BL/6J)
Description: as §1
Arterioscler Thromb Vase Biol 27:1947-1954.

[3] = tested on: endothelial cell proliferation in ischemic gastrocnemicus tissues; test: Endothelial cell proliferation (Ki67 staining) in gastrocnemius tissue; type: in vivo, mouse (C57BL/6J); details: day 3
Description: as §1
The effect of sodium nitrite on endothelial cell proliferation in ischemic gastrocnemicus tissues was analyzed in the hind-limb ischemia model of Example 1.

[4] = tested on: mouse hind-limb ischemia model; type: in vivo, mouse (C57BL/6J)
Experimental: as §2
Stimulation of angiogenesis alone during chronic ischemia is generally insufficient for restoring tissue perfusion. Increased arteriogenesis through the recruitment and differentiation of smaller arterioles is important to supply newly formed microvasculature. Moreover, an acute increase in vascular shear stress due to increased blood flow is a critical mediator of arteriogenesis. We examined the effect of 165 μg/kg sodium nitrite on acute changes (30 sec) in ischemic and nonischemic tissue perfusion according to the method in Example 1. Ten mice were used per treatment group.

[5] = Experimental: (§3) Measurement of Nitrite, NO Metabolite, Tissue cGMP, and eNOS Protein Levels. Nitrite and tissue NO metabolite levels tissue (nitrosothiol, C- or N-nitroso compounds, or iron-nitrosyl proteins which are collectively referred to SNO+XNO) whether were measured using chemiluminescence techniques according to Lang, J. D., Jr., Teng, X., Chumley, P., Crawford, J. H., Isbell, T. S., Chacko, B. K., Liu, Y., Jhala, N., Crowe, D. R., Smith, A. B., et al. 2007. J Clin Invest. 117:2583-2591. Gastrocnemius muscle tissue cGMP levels were determined using the cGMP ELISA from Cayman Chemical (Ann Arbor, Mich.) according to the manufacturer's directions. Specimens were collected within 2 min after injection of either PBS or sodium nitrite. Total eNOS protein levels in hind-limb tissue were determined by Western blot analysis.
(§4) Analysis of blood and tissue nitrite levels in nitrate-treated and control animals was performed according to the method in Example 1.

eNOS protein = details: 165 μg/kg
Experimental: as §3, §4

SNO+XNO = details: 165 μg/kg
Experimental: as §3
The effect of nitrite treatment on levels of the NO metabolites, SNO and XNO was measure according to the method in Example 1. Twenty mice were used per treatment group.

cGMP = details: 165 μg/kg; day 3 or 7
Experimental: as §3

[6] = tested on: mouse hind-limb ischemia model
Experimental: Vascular casting. Hind limb vascular casting of ischemic limbs was performed using Microfil silicone injection MV120. Before vascular casting, papaverine (5 ng/ml) and adenosine (1 mg/ml) were given intravenously to increase perfusion of the casting resin. Briefly, the abdominal aorta proximal to the femoral artery bifurcation was ligated with 5.0 silk suture material and cannulated caudal to the ligation using PESO tubing held in place with a silk ligature. 400 μl of Microfil was infused into the aortic catheter and allowed to set in situ for 16 hours at 4° C. Hind limb muscle tissue was cleared by incubating tissues in graded glycerol solutions of 40%, 60%, 80%, and 100% for 24 hours each. Vascular casts were subsequently photographed using a stereomicroscope.
To further evaluate arteriogenesis activity, we performed hind-limb ligations distal to the profunda femoris and proximal to the knee to more easily distinguish changes in the arterial supply. […] Arterial casts were made according to the method in Example 1.

[7] = tested on: ischemic hind limb of C57BL/6J mice; details: 165 μg/kg single I.P. bolus 45 minutes after ligation; 7 day period
Experimental: Permanent femoral artery ligation was performed on the left hind limb of C57BL/6J mice (n=3 per treatment group) according to the method in Example 1. A single bolus injection of either PBS or sodium nitrite (165 μg/kg) was given I.P. 45 minutes after completing the ligation. Blood flow recovery was monitored every other day over a 7 day period to evaluate the efficacy of single bolus injection therapy. […] “Day 0 Pre” on the x-axis refers to blood flow on the day of ligation before the ligation was performed; “Day 0 Post” on the x-axis refers to blood flow on the day of ligation after the ligation was performed.

[8] = tested on: ischemic hind limb of C57BL/6J mice; details: 165 μg/kg I.P. b.i.d. started day 5 post-ligation
Experimental: We also evaluated the effect of delaying chronic sodium nitrite treatment on restoration of hind limb blood flow. Permanent femoral artery ligation was performed on the left hind limb of C57BL/6J mice (n=6 per treatment group) as described in Example 1. […] Blood flow recovery was monitored throughout the study using deep tissue penetrating laser Doppler as described in Example 1. […] “Day 0 Pre” on the x-axis refers to blood flow on the day of ligation before the ligation was performed; “Day 0 Post” on the x-axis refers to blood flow on the day of ligation after the ligation was performed.

[9] = tested on: ischemic hind limb of Db/Db diabetic mice
Experimental: We evaluated the effect of sodium nitrite treatment on ischemic hind limb blood flow in a diabetic mouse model. Permanent femoral artery ligation was performed on the left hind limb of Db/Db diabetic mice (n=5 per treatment group) according to the methods in Examples 1 and 2, except that the mice were anesthetized with 2% inhaled isofluorane. […] Blood flow recovery was monitored throughout the study using deep tissue penetrating laser Doppler according to the method in Example 1.

[10] = tested on: excisional wounds in C57BL/6J mice; details: for percent wound surface remaining vs PBS-treated controls: 165 μg/kg I.P. b.i.d.
Experimental: Full thickness excisional wounds were created using a 4 mm punch biopsy device. C57BL/6J mice were anesthetized according to the method in Example 1. Wounds were created by pinching the loose skin and punching a half circle biopsy to obtain a uniform 4 mm diameter wound (n=4 per treatment group). […] Wound diameter was measured using digital calipers and plotted as the percent wound surface area remaining at each successive day.

With CC1(C)N([O])C(c2ccc(C(=O)O)cc2)=[N+]([O-])C1(C)C [carboxy PTIO, 2-(4-Carboxyphenyl)-4,4,5,5-tetramethylimidazoline-1-oxyl-3-oxide, reference compound] the “effect of NO scavenger on ability of sodium nitrite to restore ischemic limb blood flow” value ([1]; carboxy PTIO 1 mg/kg daily plus sodium nitrite 165 μg/kg) was “significantly attenuated”, the “effect of cPTIO cotreatment on nitrite augmentation of angiogenesis in ischemic hind limbs” value ([2]; cPTIO plus sodium nitrite 165 μg/kg, days 3 and 7) was “prevented nitrite augmentation of angiogenesis” and the “effect of cPTIO on nitrite-induced increase in Ki67 to CD31 colocalization” value ([3]; cPTIO plus sodium nitrite, ischemic tissue) was “blocked”. The “effect of carboxy PTIO on nitrite-induced increase in Ki67 nuclear localization” value ([3]; carboxy PTIO plus sodium nitrite, ischemic tissue) was “blocked” and the “effect of cPTIO on nitrite-dependent acute tissue blood flow change” value ([4]; mouse, in vivo) was “significantly blunted”.

With O=[N+]([O-])[O-].[Na+] [sodium nitrate, reference compound] the “ischemic limb blood flow” value ([1]; lowest dose 8.25 μg/kg, by days 5 and 7) was “augmented ischemic limb blood flow”.

For O=NO [sodium nitrite], the “temporal efficacy on ischemic blood flow compared to higher and lower doses” value ([1]; 165 μg/kg i.p. twice a day) was “optimal temporal efficacy”, the “hind limb blood flow in the nonischemic limbs” value ([1]; 165 μg/kg i.p., nonischemic limb) was “neither PBS nor sodium nitrite altered” and the “blood flow after injection in hind limbs ischemic for 24 h” value ([1]; 165 μg/kg injection) was “enhanced blood flow”. For the same compound, the “percentage blood flow in ischemic hind limbs” value ([1]; 8.25, 16.5, 165 and 3,300 μg/kg i.p. twice a day, by day 3 post ligation, progressively increased by day 7, vs PBS) was “increased the percentage blood flow”, the “endothelial staining of CD31 in ischemic muscle tissue” value ([2]; 165 μg/kg, day 7, compared to PBS or sodium nitrate controls) was “much more abundant” and the “nonischemic tissue vascular density” value ([2]; 165 μg/kg, day 7, nonischemic gastrocnemius) was “did not significantly alter”. The “vascular density of ischemic gastrocnemius muscle” value ([2]; 165 μg/kg, days 3 and 7, compared to PBS or sodium nitrate) was “significantly increased”, the “augmentation of ischemic tissue vascular density, high dose vs low dose” value ([2]; 3,300 μg/kg compared to 165 μg/kg) was “less potent” and the “Ki67 nuclear localization (colocalization with DAPI)” value ([3]; 165 μg/kg, ischemic tissue) was “significantly increased”. The “Ki67 to CD31 colocalization” value ([3]; 165 μg/kg, ischemic tissue) was “significantly increased”, the “Ki67 nuclear localization (colocalization with DAPI)” value ([3]; 165 μg/kg, non-ischemic tissue) was “but not non-ischemic tissues” and the “blood levels of nitrite” value ([5]; 165 μg/kg chronic therapy, days 3 and 7) was “significantly decreased over time”. For the same compound, the tissue nitrite levels ([5]; 165 μg/kg, day 3, ischemic tissue) was “significantly increased”, the “tissue nitrite levels, nitrite-treated vs PBS-treated” value ([5]; 165 μg/kg, day 7) was “did not differ significantly” and the eNOS protein expression (eNOS protein; day 3, ischemic hind-limb tissue) was “significantly decreased”. For the same compound, the eNOS protein expression (eNOS protein; day 3, nonischemic hind-limb tissue) was “without altering expression”, the eNOS protein expression (eNOS protein; day 7, ischemic tissue) was “no effect” and the eNOS protein expression (eNOS protein; day 7, nonischemic tissue) was “reduced”. The “tissue SNO+XNO levels” value (SNO+XNO; day 3) was “Neither sodium nitrite (165 μg/kg) nor PBS significantly altered”, the “SNO+XNO levels in ischemic tissue” value (SNO+XNO; day 7, compared to PBS) was “significantly increased” and the “tissue cGMP levels” value (cGMP) was “neither 165 μg/kg sodium nitrite nor PBS significantly altered”. The “acute blood flow change under chronic nitrite therapy” value ([4]; 165 μg/kg, days 3 and 7) was “lesser, yet still significant, increase”, the “acute enhancement of ischemic tissue blood flow” value ([4]; mouse, in vivo) was 92.3±18% and the “duration of increased blood flow after injection” value ([4]; mouse, in vivo) was > 10 min. The “collateral vessels in arterial cast of ischemic limb” value ([6]; day 7, vascular casting) was “Numerous collateral vessels”, the “number of arterial branch points” value ([6]; ligation distal to profunda femoris, vs PBS-treated controls) was “significantly greater” and the “ischemic hind limb blood flow recovery after single bolus” value [7] was “did not restore”. For the same compound, the “ischemic hind limb blood flow recovery with delayed therapy” value [8] was “restored”, the “ischemic hind-limb blood flow recovery in diabetic mice” value ([9]; 165 μg/kg I.P. b.i.d. started post-ligation) was “restored” and the “blood flow in ischemic hind limbs vs PBS-treated controls” value ([9]; 165 μg/kg I.P. b.i.d., all time points analyzed) was “significantly greater”. The “blood flow in ischemic hind limbs relative to preligation” value ([9]; 165 μg/kg I.P. b.i.d., by the end of the study) was “approached preligation levels”, the excision wound healing ([10]; 165 μg/kg I.P. b.i.d. from wounding, 4 mm wound) was “enhanced” and the “percent wound surface remaining vs PBS-treated controls” value ([10]; first six days of the study) was “significantly less”. For the same compound, the “percent wound surface remaining vs PBS-treated controls” value ([10]; remaining four days) was “lower”.
